Patent publication US8883856B2, “Compositions and methods for the treatment of inflammatory diseases using topoisomerase inhibitors” (priority 2000, dated 2014)

Tests used:
human neutrophils = test: Neutrophil chemiluminescence (neutrophil activation); assay type: cell-based; conditions: Homo sapiens, Neutrophil; three agonists: CPPD crystals, fMLP, PMA; read-out: IC 50, inhibition of neutrophil chemiluminescence
Procedure: Freshly prepared human neutrophils were incubated with the compound followed by stimulation of the cells with either plasma opsonized CPPD crystals, the bacterial chemoattractant, fMLP or the phorbol ester, PMA. Stimulation (or activation) of the cells induced superoxide anion generation which could be measured by the emission of light (chemiluminescence). Inhibition of neutrophil function was then determined by inhibition of chemiluminescence. Hanks buffered salt solution (HBSS) pH 7.4 was used throughout the study. All chemicals were purchased from Sigma Chemical Co. (St. Louis, Mo.) unless otherwise stated. All procedures were performed at 37° C. unless otherwise stated. CPPD (triclinic) crystals were prepared and characterized as previously reported (Jackson J K et al., J Rheumatol, 24: 341-348, 1996). The size distribution of the crystals was approximately 33% less than […]. Opsonization of crystals was carried out using 50% heparinized plasma and concentrations of 50 mg of CPPD in 1 mL of 50% plasma. Crystals were incubated with diluted plasma for 30 min at 37° C., centrifuged at 1000×g, then washed in HBSS and recentrifuged. Neutrophils were prepared from freshly collected, human, citrated whole blood. Briefly, 400 mL of blood were mixed with 80 mL of 4% dextran T500 (Pharmacia LKB, Biotechnology AB Uppsala, Sweden) in HBSS and allowed to settle for 1 h. Plasma was collected continuously and 5 mL applied to 5 mL Ficoll Paque (Pharmacia) in 15 mL polypropylene tubes (Corning, N.Y.). Following centrifugation at 500×g for 30 min, the neutrophil pellets were washed free of erythrocytes by 20 s of hypotonic shock. Neutrophils were resuspended in HBSS, kept on ice and used for experiments within 3 h. Neutrophil viability and purity was always greater than 90%.
A stock solution of drug was diluted in DMSO to give various concentrations of drug. Equal volumes of these solutions were added to neutrophils at 5×10^6 cells per mL under mild vortexing to achieve final concentrations with a final DMSO concentration of 0.25%. This DMSO concentration found to have no effect on control cell responses. Cells were incubated for 15 minutes at 37° C. before addition to crystals, fMLP or PMA.
Chemiluminescence studies were performed at a cell concentration of 5×10^6 cells per mL in HBSS with CPPD (50 mg/mL). In all experiments 0.5 mL of cells were added to 25 mg of CPPD or 1 uM fMLP (and 0.5 uM cytochalasin B) or 0.5 uM PMA in 1.5 ml Eppendorf tubes. To the tubes were added 10 uL of luminol dissolved in 25% DMSO in HBSS to give a final concentration of 1 μM and the samples were mixed to initiate neutrophil activation. Chemiluminescence was monitored using an LKB Luminometer (Model 1250) at 37° C. with shaking immediately prior to measurements to resuspend the crystals. Control tubes contained cells, drug and luminol (crystals absent).

collagenase gene = test: IL-1 induced collagenase gene expression in chondrocytes; assay type: cell-based, calf; conditions: 1×10^−5 M
Text: (§1) This assay measures the levels of RNA for the two metalloproteinases, collagenase and stromelysin. Over-expression of these genes results in excessive synthesis and secretion of these two enzymes from articular chondrocytes and may represent part of the pathophysiology of rheumatoid arthritis. Agents that inhibit over-expression of collagenase and stromelysin can be antiarthritc agents. […] Proteoglycan gene expression is part of the normal physiology of chondrocytes.
(§2) Primary chondrocyte culture was freshly isolated from calf cartilage. The cells were plated (at 2.5×10^6/mL) in 100×20 mm culture dishes and incubated in Ham's F12 medium containing 5% fetal bovine serum (FBS) overnight at 37° C. The cells were starved with serum-free medium overnight. […] Then IL-1 (20 ng/mL) was added to each plate and the plates were incubated for an additional 18 hours. Total RNA was isolated by the acidified guanidine isothiocyanate method and subjected to electrophoresis on a denatured gel. Denatured RNA samples (15 ug) were analyzed by gel electrophoresis in a 1% denaturing gel, transferred to a nylon membrane, and hybridized respectively with the ^32P-labelled collagenase cDNA probe, ^32P-labelled stromelycin cDNA probe, ^32P-labelled proteoglycan cDNA probe and ^32P-labelled glyceraldehyde phosphate dehydrogenase (PAGDH) cDNA. The PAGDH levels acted as an internal standard to ensure roughly equal loading. The experimental results on X-ray films were scanned and analyzed with HP ScanJet.

[1] = In vitro drug release from polymeric formulations; assay type: physicochemical
stromelycin gene = test: IL-1 induced stromelycin gene expression in chondrocytes; assay type: cell-based, calf
Text: as §1, §2

[2] = tested on: chorioallantoic membrane of the chick embryo; test: Angiogenesis in the chick chorioallantoic membrane (CAM assay); assay type: in vivo
Text: Sheets of sterile waxed paper were placed onto the window that was created in the air space and were used to prevent contamination and dehydration of the egg contents. These sheets, measuring 4 cm×4 cm, were sterilized by spraying them with 70% ethanol and allowing them to dry in the laminar flow hood. […] Using 70% ethanol and Kimwipes, the entire eggshell was wiped down to help clean and sanitize the outside of the egg. Inside a laminar flow hood, the egg was held with the blunt side up and a hole was made in the blunt end of the egg by carefully cracking the shell with the end of forceps. The shell remnants were gently removed with forceps to form a hole in the blunt end. This circular hole was made as large as 2 to 3 cm in diameter without damaging the inner membrane. Once the hole was created in the shell, the inner shell membrane (which houses the egg contents) was gently torn and removed using the forceps, taking care not to damage the chorioallantoic membrane (CAM) (which houses the yolk and developing chick embryo). The hole was then covered with the sheet of sterilized parafilm wax paper by gently stretching the parafilm and then placing it around the hole. The egg was then placed in the egg rack in the incubator (37° C.) and positioned in such a way as to prevent rotation. After 6 days each egg was removed one by one from the incubator (blunt side up), and the parafilm covering the window was removed for direct access to the CAM, which originates from the hind gut of the embryo. The drug-loaded polymer was placed onto the growing capillary bed of the CAM. The egg contents were then resealed with the parafilm sheet and placed back into the 37° C. incubator. […] The values of the avascular scale describe the following: […]

## CC1=CC(=O)c2c(O)cccc2C1=O [plumbagin]
Human neutrophils
  IC50: < 1 µg/mL
Collagenase gene
  IL-1 induced collagenase gene expression: completely inhibited
[1]; chitosan films, PBS pH 7.4, 37° C.
  drug release profile: initial burst of drug release followed by a slow sustained release
[1]; ethylene vinyl acetate films, PBS pH 7.4, 37° C.
  drug release profile: initial burst of drug release followed by a slow sustained release
[1]; poly(L-lactic acid) microspheres, PBS pH 7.4, 37° C.
  drug release profile: initial burst of drug release followed by a slow sustained release
[1]; polycaprolactone microspheres, PBS pH 7.4, 37° C.
  drug release profile: initial burst of drug release followed by a slow sustained release
[1]; polycaprolactone paste, PBS, 37° C.
  drug release profile: initial burst of drug release followed by a slow sustained release
[1]; triblock copolymer/MePEG paste, PBS pH 7.4 with n-octanol, 37° C.
  drug release profile: initial burst of drug release followed by a slow sustained release
Stromelycin gene; 1×10^−5 M
  IL-1 induced stromelycin gene expression: completely inhibited
Stromelycin gene; 1×10^−6 M
  stromelysin expression: partial inhibition
[2]; 1.0% w/w in PCL pellet, 48 hours
  number of eggs (CAM's) with antiangiogenic activity Partial (score 1-2): Necrosis
[2]; in vivo
  generalized cytotoxicity in the CAM: some evidence of necrosis in non-capillary cells and membrane thinning
[2]; summary over all concentrations tested in PCL or PCL-MePEG pellets
  inhibition of angiogenesis in the CAM, in words: partial inhibition of angiogenesis in a number of CAM's
